One data set relates to subcutaneous U87 tumour. Description: co-registered coronal micro-PET/CT imaging of mouse bearing a subcutaneous U87 tumour. The class given is in vivo, C57/BI6 mouse. Conditions: same mouse imaged with ^18F-FDG (3A) and ^18F-fluciclatide (3B); comparison of the two images. From the text:
FIGS. 3A and 3B show co-registered coronal micro-PET/CT images of the same C57/BI6 mouse bearing a subcutaneous U87 tumour on its left side. The emission image in 3A is that of ^18F-FDG and that in 3B is of ^18F-fluciclatide.

A further data set concerns alphavbeta3/5 integrins. Description: co-registered contrast-enhanced CT and SPECT emission imaging of a necrotic lymph node metastasis for a primary breast cancer. The class given is in vivo. The text has this:
The emission image was obtained for ^99mTc-maraciclatide. The necrotic centre in the CT image which corresponds to no uptake of the agent in the SPECT image.

Starred links: 1 amine or outer side, 2 acyl side, 3 side chain; linkers in the order of their positions; H or OH if unused. Positions of bridges follow the written chain, without caps; N, C: chain ends. Residues, ends and D or L forms follow the SMILES beside them. Groups on a side chain read outwards from the residue. *: point of attachment. X3 = C/C(=N/O)C(C)(C)NCCC(CCNC(C)(C)/C(C)=N\O)CCN*; Glutaryl = O=C(CCCC(=O)[*:2])[*:1]; X2 = NC(=O)COCC(=O)NCCOCCOCCOCCN*

As to `OC[C@H]1OC(O)[C@H](F)[C@@H](O)[C@@H]1O` (stereo partly shown) [^18F-FDG, fluorodeoxyglucose, reference compound], in the data set with subcutaneous U87 tumour, the tumour uptake volume entry is given as “difference in tumour uptake volumes”.

On to `C/C(=N/O)C(C)(C)NCCC(CCNC(=O)CCCC(=O)NCCCC[C@@H]1NC(=O)CSC[C@@H](C(=O)NCCOCCOCCOCCNC(=O)COCC(N)=O)NC(=O)[C@H](Cc2ccccc2)NC(=O)[C@@H]2CSSC[C@H](NC1=O)C(=O)N[C@@H](CCCNC(=N)N)C(=O)NCC(=O)N[C@@H](CC(=O)O)C(=O)N2)CCNC(C)(C)/C(C)=N\O` (stereo partly shown) [^99mTc-maraciclatide, metal not drawn] ({CH2CO}-K([Glutaryl-X3])CRGDCFC-X2; disulfide 2-6; thioether N-8), for which the “uptake of the agent in the necrotic centre” value in the data set with alphavbeta3/5 integrins (SPECT image, necrotic centre of lymph node metastasis seen in CT image) is recorded as “no uptake”. Also, in the data set on alphavbeta3/5 integrins (concluded to be due to bone marrow uptake), the “uptake in the sternum” value is reported as “uptake in the sternum”. The “region surrounding the necrotic centre due to angiogenesis and other expressions of alphavbeta3/5 integrins” value in the data set with alphavbeta3/5 integrins (emission image co-registered with CT) is reported as “highlighted”.

For the origin of these results see patent publication US20120328516A1, “METHOD OF RADIOTHERAPY USING A RADIOLABELLED RGD PEPTIDE” (priority 2009, published 2012).
